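Step 1: Grow cells in 96-well plates. Step 2: Expose to compound for 48 hours at 5 concentrations. Step 3: Interpolate endpoints linearly; if unreached, use highest concentration. The concentration for 50% growth inhibition is given as GI50.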 Calls of active or inactive are those of the source. Cut-off read from the data, not from the text of the source: active = GI50 up to about 1.1 µM and inactive = higher.
Columns and labels:
Experiment in all cases: inhibition of tumour cell growth, NCI panel, 48 h
SNB-75 = system: SNB-75
U-251 = system: U-251
NCI-H23 = system: NCI-H23
MCF7 = system: MCF7
PC-3 = system: PC-3
LOX IMVI = system: LOX IMVI
HCT-15 = system: HCT-15
UACC-62 = system: UACC-62
HT-29 = system: HT-29
SNB-19 = system: SNB-19
K562 = system: K562
SF-295 = system: SF-295
SK-MEL-2 = system: SK-MEL-2
NCI-H226 = system: NCI-H226
786-0 = system: 786-0
NCI-H460 = system: NCI-H460
MOLT-4 = system: MOLT-4

Row | Structure (SMILES) | GI50 (SNB-75) | GI50 (U-251) | GI50 (NCI-H23) | GI50 (MCF7) | GI50 (PC-3) | GI50 (LOX IMVI) | GI50 (HCT-15) [µM] | GI50 (UACC-62) | GI50 (HT-29) | GI50 (SNB-19) | GI50 (K562) | GI50 (SF-295) | GI50 (SK-MEL-2) | GI50 (NCI-H226) | GI50 (786-0) | GI50 (NCI-H460) | GI50 (MOLT-4)
1 | COc1c(C(=O)CC2c3c(cc4oc(C)cc(=O)c4c3OC)OC(=N)C2c2nc3ccccc3[nH]2)c(O)c(OC)c2occc12 (stereo not drawn) | > 100 µM (inactive) | > 100 µM (inactive) | > 100 µM (inactive) | > 100 µM (inactive) | > 100 µM (inactive) | > 100 µM (inactive) | > 100 | > 100 µM (inactive) | > 100 µM (inactive) | > 100 µM (inactive) | > 100 µM (inactive) | > 100 µM (inactive) | > 100 µM (inactive) | > 100 µM (inactive) | > 100 µM (inactive) | > 100 µM (inactive) | > 100 µM (inactive)
2 | O=C(OC(=C(c1ccccc1)c1ccccc1)N1CCCC1=S)C(c1ccccc1)c1ccccc1 | 4.91 µM (inactive) | 6.32 µM (inactive) | 4.23 µM (inactive) | 7.67 µM (inactive) | 3.24 µM (inactive) | 3.17 µM (inactive) | 4.13 | > 10 µM (inactive) | 4.42 µM (inactive) | > 10 µM (inactive) | 3.88 µM (inactive) | > 10 µM (inactive) | > 10 µM (inactive) | 4.78 µM (inactive) | > 10 µM (inactive) | 3.58 µM (inactive) | 5.01 µM (inactive)
3 | COc1ccc2[nH]c3c(C)c4ccnc(NCCCN(C)CCCNc5ccc6ncn7c8ccccc8c(=O)c5c67)c4c(C)c3c2c1 | 1.71 µM (inactive) | 0.134 µM (active) | 0.412 µM (active) | 0.142 µM (active) | 0.752 µM (active) | 0.136 µM (active) | 0.21 | 1.71 µM (inactive) | 0.0141 µM (active) | 0.752 µM (active) | 0.0632 µM (active) | 0.34 µM (active) | 3.24 µM (inactive) | 0.082 µM (active) | 0.0632 µM (active) | 0.0782 µM (active) | 0.0043 µM (active)
4 | Clc1ccc(C2=C(c3ccccc3)C(c3ccc(Cl)cc3)N3C(=N[C@H]4CCCC[C@@H]43)N2)cc1 (stereo partly drawn) | 15.2 µM (inactive) | 11.3 µM (inactive) | 14.2 µM (inactive) | 7.06 µM (inactive) | 10.2 µM (inactive) | 11.8 µM (inactive) | 5.96 | 16.7 µM (inactive) | 3.27 µM (inactive) | 14.5 µM (inactive) | 2.3 µM (inactive) | 11.6 µM (inactive) | 16.4 µM (inactive) | 21 µM (inactive) | 14.7 µM (inactive) | 2.99 µM (inactive) | 4.46 µM (inactive)
5 | CCOC(=O)/C=C(/C(=O)OCC)n1ccc(=O)n(CC(=O)OCC)c1=O | 2.48 µM (inactive) | 2.56 µM (inactive) | 1.78 µM (inactive) | 0.471 µM (active) | 1.67 µM (inactive) | 0.869 µM (active) | 0.463 | 1.64 µM (inactive) | 1.58 µM (inactive) | 10.8 µM (inactive) | 0.348 µM (active) | 14 µM (inactive) | 4.65 µM (inactive) | 2.22 µM (inactive) | 0.412 µM (active) | 3.89 µM (inactive) | 0.243 µM (active)
6 | CCN(CC)CCO/N=C1\CC[C@H]2[C@@H]3CC=C4C[C@@H](O)CC[C@]4(C)[C@H]3CC[C@]12C | 26.4 µM (inactive) | 14.4 µM (inactive) | 16.2 µM (inactive) | 16.6 µM (inactive) | 19 µM (inactive) | 16.5 µM (inactive) | 10.5 | 16.9 µM (inactive) | 3.67 µM (inactive) | 31.4 µM (inactive) | 7.98 µM (inactive) | 19.5 µM (inactive) | 23.3 µM (inactive) | 15 µM (inactive) | 17.3 µM (inactive) | 14.9 µM (inactive) | 15.7 µM (inactive)
7 | OCCOCCN1CCN(c2nc(N3CCCC3)c3nc(Cl)c(NCc4ccccc4)nc3n2)CC1 | 21 µM (inactive) | 12 µM (inactive) | 16.3 µM (inactive) | 13.9 µM (inactive) | 13.9 µM (inactive) | 10.5 µM (inactive) | 4.27 | 14 µM (inactive) | 3.92 µM (inactive) | 15.3 µM (inactive) | 3.94 µM (inactive) | 14.5 µM (inactive) | 17.5 µM (inactive) | 20.8 µM (inactive) | 13 µM (inactive) | 11.5 µM (inactive) | 10.7 µM (inactive)
8 | CC(Br)C(=O)NC(CO)C(=O)O (stereo not drawn) | > 100 µM (inactive) | > 100 µM (inactive) | > 100 µM (inactive) | > 100 µM (inactive) | > 100 µM (inactive) | > 100 µM (inactive) | > 100 | > 100 µM (inactive) | > 100 µM (inactive) | > 100 µM (inactive) | > 100 µM (inactive) | > 100 µM (inactive) | > 100 µM (inactive) | > 100 µM (inactive) | > 100 µM (inactive) | > 100 µM (inactive) | > 100 µM (inactive)
9 | O=C(NO)c1cccc(OCc2ccc(Br)cc2)c1 | 4.29 µM (inactive) | 4.63 µM (inactive) | 3.79 µM (inactive) | 2.45 µM (inactive) | 5.89 µM (inactive) | 2.11 µM (inactive) | 0.991 | 4.15 µM (inactive) | 6.98 µM (inactive) | 9.35 µM (inactive) | 3.6 µM (inactive) | 4.79 µM (inactive) | 11.3 µM (inactive) | 3.78 µM (inactive) | 2.92 µM (inactive) | 3.06 µM (inactive) | 2.03 µM (inactive)
10 | CC1/C(=N/O)CC(c2ccccc2)N(N=O)C1c1ccccc1 (stereo not drawn) | 91.4 µM (inactive) | > 100 µM (inactive) | > 100 µM (inactive) | > 100 µM (inactive) | > 100 µM (inactive) | > 100 µM (inactive) | > 100 | > 100 µM (inactive) | > 100 µM (inactive) | > 100 µM (inactive) | > 100 µM (inactive) | > 100 µM (inactive) | > 100 µM (inactive) | > 100 µM (inactive) | > 100 µM (inactive) | > 100 µM (inactive) | > 100 µM (inactive)
11 | CNn1c(C)n[nH]c1=O | 50.8 µM (inactive) | > 100 µM (inactive) | > 100 µM (inactive) | > 100 µM (inactive) | > 100 µM (inactive) | > 100 µM (inactive) | > 100 | > 100 µM (inactive) | – | > 100 µM (inactive) | > 100 µM (inactive) | > 100 µM (inactive) | > 100 µM (inactive) | > 100 µM (inactive) | > 100 µM (inactive) | > 100 µM (inactive) | > 100 µM (inactive)
12 | N#Cc1c(N)nc2c(C#N)c(N)cc3c2c1Oc1ccccc1-3 | > 100 µM (inactive) | > 100 µM (inactive) | > 100 µM (inactive) | > 100 µM (inactive) | > 100 µM (inactive) | > 100 µM (inactive) | > 100 | > 100 µM (inactive) | > 100 µM (inactive) | > 100 µM (inactive) | > 100 µM (inactive) | > 100 µM (inactive) | > 100 µM (inactive) | > 100 µM (inactive) | > 100 µM (inactive) | > 100 µM (inactive) | > 100 µM (inactive)

From ChEMBL document CHEMBL1201862, “PubChem BioAssay data set” (2004)
